Data set [1] has as its system NCM460 cells. Put plainly: Toxicity and apoptosis in NCM460 normal colonic epithelial cells. It is filed as cell-based, human. On the procedure: (§1) In these experiments the total treatment duration was limited to 16 hrs to avoid the apoptotic effect. […] Apoptosis was measured by Hoechst staining or Annexin V and propidium iodide staining on flow cytometry.
For data set [2], the system named is HT-29 cells. Put plainly: Cell growth by MTT assay in HT-29 cells. It is filed as cell-based, human. The method, then:
Cell growth was measured by the cell growth determination kit MTT from Sigma (St. Louis, Mo.). The MTT assay measures the cell proliferation rate and reduction in cell viability. HT-29 or RKO cells (1×10^4/well) were plated in 96-well plates and treated with growth factors (all 100 ng/ml), SAMe (0.5 to 5 mM), MTA (0.5 to 1 mM), alone or in combination for 16 hrs in serum-free medium. To determine the effect of MAT2A RNAi on mitogen-induced changes in MTT, cells were first treated with RNAi for 48 hrs followed by mitogen treatment for another 24 hrs.
A general note: Tetrazolium assays rely on reduction of a dye to a coloured formazan, in cell work by metabolically active cells.

Data set [3] can be described thus: Stability of SAMe and MTA in culture medium without cells and in water. It is filed as physicochemical. The note with it: culture medium at 37° C., linear regression. On the procedure: FIG. 12. […] SAMe (A) and MTA (B) levels were measured in culture medium without cells with starting SAMe concentrations ranging from 1 to 5 mM and MTA concentration at 1 mM.
To test whether the mitogens-induce increase in. MAT2A is to provide increased SAMe necessary for polyamine synthesis in growing cells, SAMe and polyamine levels were measured following treatment of HT-29 cells with mitogens.

For data set [4], the target named is MAT II (Rattus norvegicus, UniProt P18298). The note with it: cited from earlier work.
MAT II, sequence (P18298 whole entry): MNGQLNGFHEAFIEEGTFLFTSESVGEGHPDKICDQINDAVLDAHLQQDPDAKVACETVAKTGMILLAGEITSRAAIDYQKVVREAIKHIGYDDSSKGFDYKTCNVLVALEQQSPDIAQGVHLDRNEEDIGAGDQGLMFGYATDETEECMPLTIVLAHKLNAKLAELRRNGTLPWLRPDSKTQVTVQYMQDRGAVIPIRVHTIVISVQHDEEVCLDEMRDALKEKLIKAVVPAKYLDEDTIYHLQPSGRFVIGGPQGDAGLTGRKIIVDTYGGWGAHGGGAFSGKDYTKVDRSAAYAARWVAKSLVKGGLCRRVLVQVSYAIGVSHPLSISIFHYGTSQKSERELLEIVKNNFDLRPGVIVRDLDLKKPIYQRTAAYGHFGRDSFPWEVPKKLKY
MAT II, sequence (Q5U2R0 whole entry partner): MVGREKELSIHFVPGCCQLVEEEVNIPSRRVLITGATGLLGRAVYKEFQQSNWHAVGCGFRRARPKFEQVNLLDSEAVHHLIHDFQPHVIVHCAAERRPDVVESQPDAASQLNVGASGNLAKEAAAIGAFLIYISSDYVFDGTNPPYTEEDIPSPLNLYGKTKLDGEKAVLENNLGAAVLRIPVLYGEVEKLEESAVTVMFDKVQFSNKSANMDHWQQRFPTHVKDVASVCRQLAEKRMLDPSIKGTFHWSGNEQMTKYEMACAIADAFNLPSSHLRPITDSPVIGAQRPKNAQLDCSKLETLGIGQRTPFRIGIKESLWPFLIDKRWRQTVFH
For data set [5], the system named is RKO cells. Put plainly: TRAIL-induced apoptosis in RKO cells (Annexin V with FACS). It counts as cell-based, human. The note with it: 24 hours. On the procedure:
FIG. 28. MTA sensitizes RKO cells to TRAIL-induced apoptosis. RKO cells were treated with 1 mM MTA, […] 5-FU, or 10 ng/ml TRAIL alone or in combination for 24 hours. Apoptosis was determined by Annexin V with FACS.

Data set [6] relates to MAT2A. Put plainly: MAT2A mRNA levels by real-time PCR in HT-29 cells. It counts as cell-based, human. The note with it: for MAT2A expression: 6 hr treatment, HT-29 cells. In general terms: Quantitative PCR measures a nucleic acid by following its amplification.
Data set [7] deals with cFLIPL. Put plainly: Colonic cFLIPL mRNA in mice fed SAMe or MTA. The note with it: oral, 6 days. It counts as in vivo. On the procedure: FIG. 30. Effects of oral SAMe and MTA on colonic mRNA levels of MAT2A, MAT2 β, and […]. Mice were fed SAMe (150 to 450 mg/kg/d) or MTA (75 or 150 mg/kg/d) in drinking water for 6 days. Colonic mucosa was scrapped off and gene expression measured by real-time PCR.

Data set [8] concerns human GSS promoter. Put plainly: Human GSS promoter activity in HT-29 cells. It counts as cell-based. The note with it: SAMe or MTA treatment as for MAT2A promoter. From the text: The human MAT2A promoter construct[…] and GSS promoter construct −1686/−46-LUC were previously described (33, 34, 50), and subcloned in the sense orientation upstream of the luciferase coding sequence of the pGL-3 enhancer vector (Promega). Both promoter constructs contain maximal promoter activity. Specificity of SAMe and MTA on promoter activity was examined by transfecting HT-29 cells with the GSS promoter construct and treating cells with SAMe or MTA as above.

Data set [9] deals with RKO cells. Put plainly: Apoptosis in RKO cells (HOECHST staining, Annexin V). It is filed as cell-based, human. The note with it: by 24 hrs, RKO cells. The method, then:
Apoptosis was assessed by HOECHST staining (34). Briefly, RKO cells were grown on coverslips and treated with RNAi#1 for 24 hrs and cells were fixed with paraformaldehyde and stained with 8 μg/ml HOECHST 33258 dye for 30 min. Cells with bright, fragmented, condensed nuclei were identified as apoptotic cells using the Nikon Eclipse TE300 fluorescent microscope. At least 5 random fields (at ×300) were counted.
as §1

In data set [10] the target is MAT I (Rattus norvegicus, UniProt P13444). The note with it: cited from earlier work.
MAT I, sequence (P13444 whole entry): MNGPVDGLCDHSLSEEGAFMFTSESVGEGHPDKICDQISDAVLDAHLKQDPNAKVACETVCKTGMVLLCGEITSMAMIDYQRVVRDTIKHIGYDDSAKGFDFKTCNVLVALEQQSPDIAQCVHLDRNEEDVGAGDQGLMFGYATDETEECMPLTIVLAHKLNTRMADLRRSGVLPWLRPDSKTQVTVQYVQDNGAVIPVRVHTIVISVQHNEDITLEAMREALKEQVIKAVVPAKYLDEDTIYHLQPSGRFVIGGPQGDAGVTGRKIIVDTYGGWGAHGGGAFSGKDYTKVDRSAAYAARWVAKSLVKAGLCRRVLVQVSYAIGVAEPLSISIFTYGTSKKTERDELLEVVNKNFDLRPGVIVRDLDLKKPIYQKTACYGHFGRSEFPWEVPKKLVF

The structures appear in SMILES notation.

With `C[S+](CC[C@H](N)C(=O)O)C[C@H]1O[C@@H](n2cnc3c(N)ncnc32)[C@H](O)[C@@H]1O` (some centres unmarked) [SAMe, S-adenosylmethionine], the “menadione (MQ)-induced toxicity in NCM460 cells” value in data set [1] is recorded as “protected against menadione (MQ)-induced toxicity”. The growth in [2] (SAMe 5 mM, 24 hr) is on record as 71 % of control. Besides, the “growth, agent alone” value in data set [2] (SAMe 0.5 to 5 mM, MTA 0.5 to 1 mM, 16 hrs) was “no effect on growth”. The “mitogenic action of leptin, EGF and IGF-1” value in data set [2] (SAMe 0.5 to 5 mM, MTA 0.5 to 1 mM, 16 hrs, with growth factors) was “blocked the mitogenic action”. The “rate of conversion from SAMe to MTA” value in [3] was 0.013 mM per hour per mM SAMe. The “Inhibition by SAMe” value in data set [4] (MAT II) is on record as “Yes”; in data set [10] (MAT I), “No”. Further, the IC50 (usually the concentration needed to halve the response being measured) is 60 µM in [4] (read-out: IC50, inhibition of MAT II) and 400 µM in [10] (read-out: IC50, inhibition of MAT I). Further, the TRAIL-induced apoptosis result in [5] is “sensitized RKO cells to TRAIL-induced apoptosis”. The MAT2A expression is 81 % baseline in [6] (0.5 mM SAMe), 65 % baseline in data set [6] (1 mM SAMe), 55 % baseline in data set [6] (2 mM SAMe) and 38 % of baseline in data set [6] (5 mM SAMe). For the same compound, the “reduction of baseline expression of MAT2A” value in [6] (SAMe 5 mM or MTA 1 mM, 6 hrs, HT29 cells) is 60%. Also, in [6] (co-treatment 3 hrs), the “IGF-1-mediated induction of MAT2A on co-treatment” value is listed as “blunted the IGF-1-mediated induction of MAT2A”. The “leptin- or EGF-induced MAT2A expression on co-treatment” value in [6] (co-treatment with leptin (6 hrs) or EGF (3 hrs)) is “prevented the ability of these growth factors to induce MAT2A”. For the same compound, the cFLIPL expression entry in data set [7] is given as “inhibited cFLIPL expression”. In addition, the “human GSS promoter activity” value in data set [8] is reported as “no influence on the human GSS promoter activity”. In addition, in data set [9], the apoptosis entry is recorded as “induced apoptosis in a dose-dependent manner”.

(Values after patent publication US20100166727A1, “S-Adenosylmethionine And Methylthioadensosine In Chemoprevention And Treatment Of Colon Polyps And Cancer” (UNIVERSITY OF SOUTHERN CALIFORNIA, priority 2007, published 2010).)
